ChEMBL document CHEMBL4507263, “Data for DCP probe BAY-474” (2021)

What was measured:
[1] = target: Serine/threonine-protein kinase 3 (Homo sapiens) (UniProt Q13188); experiment: MST2 (h) Millipore kinase activity assay; conditions: Compound concentration 1.0 uM
[2] = target: Serine/threonine-protein kinase WNK2 (Homo sapiens) (UniProt Q9Y3S1); experiment: WNK2 (h) Millipore kinase activity assay; conditions: Compound concentration 1.0 uM
[3] = target: Sigma non-opioid intracellular receptor 1 (Homo sapiens) (UniProt Q99720); experiment: Inhibition of Sigma 1 at 10 µM in the Eurofins-Panlabs radioligand binding assay (Eurofins_assay_278110); set-up: ligand concentration 8 nM; conditions: Compound concentration 10.0 uM
[4] = target: Serine/threonine-protein kinase BRSK2 (Homo sapiens) (UniProt Q8IWQ3); experiment: BrSK2 (h) Millipore kinase activity assay; conditions: Compound concentration 1.0 uM
[5] = target: Activated CDC42 kinase 1 (Homo sapiens) (UniProt Q07912); experiment: ACK1 (h) Millipore kinase activity assay; conditions: Compound concentration 1.0 uM
[6] = target: Serine/threonine-protein kinase 33 (Homo sapiens) (UniProt Q9BYT3); experiment: STK33 (h) Millipore kinase activity assay; conditions: Compound concentration 1.0 uM
[7] = target: Mu-type opioid receptor (Homo sapiens) (UniProt P35372); conditions: Compound concentration 10.0 uM
[8] = target: Tyrosine-protein kinase HCK (Homo sapiens) (UniProt P08631); experiment: Hck (h) Millipore kinase activity assay; conditions: Compound concentration 1.0 uM
Sequence of Tyrosine-protein kinase HCK (Homo sapiens) (P08631 2-526 limits assumed): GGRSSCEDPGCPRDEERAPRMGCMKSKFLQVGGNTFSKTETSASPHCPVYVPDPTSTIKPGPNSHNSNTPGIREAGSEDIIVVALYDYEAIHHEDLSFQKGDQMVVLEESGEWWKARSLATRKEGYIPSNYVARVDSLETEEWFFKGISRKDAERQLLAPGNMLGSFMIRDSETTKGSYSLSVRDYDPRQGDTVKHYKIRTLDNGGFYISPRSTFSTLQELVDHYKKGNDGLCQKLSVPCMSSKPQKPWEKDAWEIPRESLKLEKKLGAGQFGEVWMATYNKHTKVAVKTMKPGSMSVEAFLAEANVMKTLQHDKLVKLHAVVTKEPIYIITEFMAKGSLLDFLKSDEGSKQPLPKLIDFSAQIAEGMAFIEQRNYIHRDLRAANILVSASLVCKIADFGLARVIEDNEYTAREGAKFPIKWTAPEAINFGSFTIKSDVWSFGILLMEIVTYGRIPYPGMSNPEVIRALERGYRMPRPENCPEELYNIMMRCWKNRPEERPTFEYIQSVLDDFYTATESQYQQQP

[9] = target: Casein kinase I isoform gamma-2 (Homo sapiens) (UniProt P78368); experiment: CK1gamma2 (h) Millipore kinase activity assay; conditions: Compound concentration 1.0 uM
[10] = target: Serine/threonine-protein kinase ULK3 (Homo sapiens) (UniProt Q6PHR2); experiment: ULK3 (h) Millipore kinase activity assay; conditions: Compound concentration 1.0 uM
[11] = target: Protein kinase C beta type (Homo sapiens) (UniProt P05771); experiment: PKCbetaI (h) Millipore kinase activity assay; conditions: Compound concentration 1.0 uM
[12] = target: Histamine H3 receptor (Homo sapiens) (UniProt Q9Y5N1); conditions: Compound concentration 10.0 uM
[13] = target: LIM domain kinase 1 (Homo sapiens) (UniProt P53667); experiment: LIMK1 (h) Millipore kinase activity assay; conditions: Compound concentration 1.0 uM
[14] = target: Protein kinase C gamma type (Homo sapiens) (UniProt P05129); experiment: PKCgamma(h) Millipore kinase activity assay; conditions: Compound concentration 1.0 uM
[15] = target: Tyrosine-protein kinase JAK3 (Homo sapiens) (UniProt P52333); experiment: JAK3 (h) Millipore kinase activity assay; conditions: Compound concentration 1.0 uM
[16] = target: Serine/threonine-protein kinase Sgk3 (Homo sapiens) (UniProt Q96BR1); experiment: SGK3 (h) Millipore kinase activity assay; conditions: Compound concentration 1.0 uM
[17] = target: Tyrosine-protein kinase ABL2 (Homo sapiens) (UniProt P42684); experiment: Arg (h) Millipore kinase activity assay; conditions: Compound concentration 1.0 uM
[18] = target: Discoidin domain-containing receptor 2 (Homo sapiens) (UniProt Q16832); experiment: DDR2 (h) Millipore kinase activity assay; conditions: Compound concentration 1.0 uM
[19] = target: Tyrosine-protein kinase Blk (Homo sapiens) (UniProt P51451); conditions: Compound concentration 1000.0 nM
[20] = target: Receptor tyrosine-protein kinase erbB-2 (Homo sapiens) (UniProt P04626); conditions: Compound concentration 1000.0 nM
[21] = target: Serine/threonine-protein kinase 4 (Homo sapiens) (UniProt Q13043); conditions: Compound concentration 1000.0 nM
Sequence of Serine/threonine-protein kinase 4 (Homo sapiens) (Q13043 whole entry): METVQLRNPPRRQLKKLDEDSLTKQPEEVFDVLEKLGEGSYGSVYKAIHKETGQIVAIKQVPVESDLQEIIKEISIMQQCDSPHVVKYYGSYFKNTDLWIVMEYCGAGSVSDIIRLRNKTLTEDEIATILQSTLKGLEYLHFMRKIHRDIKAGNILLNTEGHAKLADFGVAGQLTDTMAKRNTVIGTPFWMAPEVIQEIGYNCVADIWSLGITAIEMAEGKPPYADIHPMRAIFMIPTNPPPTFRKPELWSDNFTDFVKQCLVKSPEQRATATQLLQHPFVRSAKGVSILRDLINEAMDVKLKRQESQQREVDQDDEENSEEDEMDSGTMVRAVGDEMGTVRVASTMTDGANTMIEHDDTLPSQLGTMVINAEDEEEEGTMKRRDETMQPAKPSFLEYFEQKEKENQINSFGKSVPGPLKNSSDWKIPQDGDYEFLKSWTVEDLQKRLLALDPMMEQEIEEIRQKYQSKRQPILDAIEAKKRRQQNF

[22] = target: Ephrin type-B receptor 2 (Homo sapiens) (UniProt P29323); conditions: Compound concentration 1000.0 nM
[23] = target: Cyclin-dependent kinase 13 (Homo sapiens) (UniProt Q14004); conditions: Compound concentration 1000.0 nM
[24] = target: Atypical kinase COQ8B, mitochondrial (Homo sapiens) (UniProt Q96D53); conditions: Compound concentration 1000.0 nM
[25] = target: Death-associated protein kinase 1 (Homo sapiens) (UniProt P53355); conditions: Compound concentration 1000.0 nM
Sequence of Death-associated protein kinase 1 (Homo sapiens) (P53355 whole entry, looked up): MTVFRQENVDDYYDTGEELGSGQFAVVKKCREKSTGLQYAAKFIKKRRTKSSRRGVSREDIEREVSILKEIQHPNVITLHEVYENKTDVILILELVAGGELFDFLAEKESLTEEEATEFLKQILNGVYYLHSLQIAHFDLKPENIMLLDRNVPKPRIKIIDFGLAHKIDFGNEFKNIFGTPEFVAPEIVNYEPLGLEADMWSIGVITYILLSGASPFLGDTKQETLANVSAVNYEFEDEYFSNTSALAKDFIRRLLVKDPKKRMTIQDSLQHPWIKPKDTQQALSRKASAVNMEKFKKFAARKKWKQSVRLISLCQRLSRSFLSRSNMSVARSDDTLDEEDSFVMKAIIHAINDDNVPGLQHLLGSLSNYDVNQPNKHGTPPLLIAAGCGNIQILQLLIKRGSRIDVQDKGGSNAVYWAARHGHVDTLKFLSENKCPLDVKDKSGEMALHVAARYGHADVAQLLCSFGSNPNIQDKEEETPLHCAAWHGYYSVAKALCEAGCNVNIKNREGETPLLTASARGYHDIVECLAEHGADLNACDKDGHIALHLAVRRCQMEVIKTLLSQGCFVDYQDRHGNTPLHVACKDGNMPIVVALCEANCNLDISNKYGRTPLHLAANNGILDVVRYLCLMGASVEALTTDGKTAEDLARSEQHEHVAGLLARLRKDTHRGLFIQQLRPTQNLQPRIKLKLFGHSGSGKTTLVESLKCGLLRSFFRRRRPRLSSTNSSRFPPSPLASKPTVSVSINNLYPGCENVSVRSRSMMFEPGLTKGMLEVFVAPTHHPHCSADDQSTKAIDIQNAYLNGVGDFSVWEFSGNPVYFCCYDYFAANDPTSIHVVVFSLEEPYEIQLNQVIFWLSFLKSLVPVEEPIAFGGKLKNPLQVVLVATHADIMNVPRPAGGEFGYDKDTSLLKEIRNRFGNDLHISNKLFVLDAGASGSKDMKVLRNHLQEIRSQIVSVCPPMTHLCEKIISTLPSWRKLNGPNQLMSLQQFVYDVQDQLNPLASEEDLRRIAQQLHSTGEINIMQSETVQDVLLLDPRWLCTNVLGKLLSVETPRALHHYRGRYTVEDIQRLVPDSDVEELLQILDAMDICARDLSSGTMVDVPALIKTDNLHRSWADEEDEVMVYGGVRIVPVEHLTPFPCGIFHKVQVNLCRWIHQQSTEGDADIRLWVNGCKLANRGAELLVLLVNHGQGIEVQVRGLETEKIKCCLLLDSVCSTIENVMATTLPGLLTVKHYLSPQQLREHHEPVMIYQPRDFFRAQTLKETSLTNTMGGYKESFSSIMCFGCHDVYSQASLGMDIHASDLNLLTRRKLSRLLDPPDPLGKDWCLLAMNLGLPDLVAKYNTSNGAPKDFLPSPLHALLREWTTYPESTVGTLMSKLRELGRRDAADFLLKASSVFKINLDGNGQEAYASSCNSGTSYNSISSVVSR

[26] = target: Serine/threonine-protein kinase 38-like (Homo sapiens) (UniProt Q9Y2H1); conditions: Compound concentration 1000.0 nM
[27] = target: Receptor-interacting serine/threonine-protein kinase 2 (Homo sapiens) (UniProt O43353); conditions: Compound concentration 1000.0 nM
[28] = test system: Mast/stem cell growth factor receptor Kit (Homo sapiens), P10721 [D816V]; conditions: Compound concentration 1000.0 nM
[29] = test system: Receptor-type tyrosine-protein kinase FLT3 (Homo sapiens), P36888 [K663Q]; conditions: Compound concentration 1000.0 nM
[30] = target: Serine/threonine-protein kinase PAK 3 (Homo sapiens) (UniProt O75914); conditions: Compound concentration 1000.0 nM
[31] = target: TGF-beta receptor type-1 (Homo sapiens) (UniProt P36897); conditions: Compound concentration 1000.0 nM
[32] = target: Homeodomain-interacting protein kinase 2 (Homo sapiens) (UniProt Q9H2X6); conditions: Compound concentration 1000.0 nM
[33] = target: Tyrosine-protein kinase Fes/Fps (Homo sapiens) (UniProt P07332); conditions: Compound concentration 1000.0 nM
[34] = target: Tyrosine-protein kinase Mer (Homo sapiens) (UniProt Q12866); conditions: Compound concentration 1000.0 nM
[35] = target: Mitotic checkpoint serine/threonine-protein kinase BUB1 (Homo sapiens) (UniProt O43683); conditions: Compound concentration 1000.0 nM
[36] = test system: Tyrosine-protein kinase ABL1 (Homo sapiens), P00519 [H396P]; conditions: Compound concentration 1000.0 nM
[37] = target: Serine/threonine-protein kinase PAK 6 (Homo sapiens) (UniProt Q9NQU5); conditions: Compound concentration 1000.0 nM
[38] = target: Serine/threonine-protein kinase 3 (Homo sapiens) (UniProt Q13188); conditions: Compound concentration 1000.0 nM
[39] = target: Calcium/calmodulin-dependent protein kinase type II subunit alpha (Homo sapiens) (UniProt Q9UQM7); conditions: Compound concentration 1000.0 nM
Rattus norvegicus = species on record: Rattus norvegicus; conditions: Compound concentration 10.0 uM
[40] = target: Phosphorylase b kinase gamma catalytic chain, skeletal muscle/heart isoform (Homo sapiens) (UniProt Q16816); conditions: Compound concentration 1000.0 nM
[41] = target: Serine/threonine-protein kinase ULK2 (Homo sapiens) (UniProt Q8IYT8); conditions: Compound concentration 1000.0 nM
Sequence of Serine/threonine-protein kinase ULK2 (Homo sapiens) (Q8IYT8 whole entry): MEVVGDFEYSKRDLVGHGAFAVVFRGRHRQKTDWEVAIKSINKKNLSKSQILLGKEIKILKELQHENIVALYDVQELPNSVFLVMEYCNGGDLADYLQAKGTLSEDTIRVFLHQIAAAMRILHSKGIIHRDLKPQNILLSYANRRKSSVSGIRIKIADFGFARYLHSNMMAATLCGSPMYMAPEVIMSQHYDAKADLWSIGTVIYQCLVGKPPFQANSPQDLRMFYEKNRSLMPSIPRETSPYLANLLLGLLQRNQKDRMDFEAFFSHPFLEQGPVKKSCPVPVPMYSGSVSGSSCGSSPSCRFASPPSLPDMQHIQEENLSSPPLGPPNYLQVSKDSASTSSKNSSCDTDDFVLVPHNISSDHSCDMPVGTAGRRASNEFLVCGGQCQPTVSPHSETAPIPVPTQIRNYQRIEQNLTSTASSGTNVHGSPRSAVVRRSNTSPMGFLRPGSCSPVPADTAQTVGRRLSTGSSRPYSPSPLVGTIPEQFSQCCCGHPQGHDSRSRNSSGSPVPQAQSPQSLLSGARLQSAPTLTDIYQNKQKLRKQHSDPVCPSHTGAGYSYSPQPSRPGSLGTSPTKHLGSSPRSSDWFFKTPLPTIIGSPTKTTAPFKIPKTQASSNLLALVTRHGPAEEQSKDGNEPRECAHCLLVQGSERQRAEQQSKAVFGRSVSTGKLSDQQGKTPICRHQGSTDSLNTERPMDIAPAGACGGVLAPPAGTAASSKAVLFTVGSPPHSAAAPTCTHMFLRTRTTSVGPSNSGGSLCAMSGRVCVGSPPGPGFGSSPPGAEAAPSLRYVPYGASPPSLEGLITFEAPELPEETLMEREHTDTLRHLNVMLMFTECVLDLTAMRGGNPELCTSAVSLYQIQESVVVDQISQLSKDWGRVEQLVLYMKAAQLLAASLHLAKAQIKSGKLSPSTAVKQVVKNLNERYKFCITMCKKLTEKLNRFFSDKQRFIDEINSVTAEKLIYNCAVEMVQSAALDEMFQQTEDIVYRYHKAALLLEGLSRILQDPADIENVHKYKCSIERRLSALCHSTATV

[42] = target: Phosphatidylinositol 4-phosphate 5-kinase type-1 gamma (Homo sapiens) (UniProt O60331); conditions: Compound concentration 1000.0 nM
[43] = target: Calcium/calmodulin-dependent protein kinase type 1 (Homo sapiens) (UniProt Q14012); conditions: Compound concentration 1000.0 nM
Sequence of Calcium/calmodulin-dependent protein kinase type 1 (Homo sapiens) (Q14012 whole entry, looked up): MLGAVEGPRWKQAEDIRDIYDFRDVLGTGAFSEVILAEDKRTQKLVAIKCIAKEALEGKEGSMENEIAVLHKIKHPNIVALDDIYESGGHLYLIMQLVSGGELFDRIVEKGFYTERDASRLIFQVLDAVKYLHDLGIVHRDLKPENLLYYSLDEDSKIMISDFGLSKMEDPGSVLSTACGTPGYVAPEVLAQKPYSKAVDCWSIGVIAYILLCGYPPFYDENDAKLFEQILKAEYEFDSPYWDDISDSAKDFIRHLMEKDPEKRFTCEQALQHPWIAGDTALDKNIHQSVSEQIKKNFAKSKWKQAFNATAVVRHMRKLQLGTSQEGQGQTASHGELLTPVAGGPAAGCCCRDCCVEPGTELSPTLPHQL

[44] = target: Serine/threonine-protein kinase MARK1 (Homo sapiens) (UniProt Q9P0L2); conditions: Compound concentration 1000.0 nM
[45] = target: Serine/threonine-protein kinase 32B (Homo sapiens) (UniProt Q9NY57); conditions: Compound concentration 1000.0 nM

Sequence of Serine/threonine-protein kinase 3 (Homo sapiens) (Q13188 whole entry): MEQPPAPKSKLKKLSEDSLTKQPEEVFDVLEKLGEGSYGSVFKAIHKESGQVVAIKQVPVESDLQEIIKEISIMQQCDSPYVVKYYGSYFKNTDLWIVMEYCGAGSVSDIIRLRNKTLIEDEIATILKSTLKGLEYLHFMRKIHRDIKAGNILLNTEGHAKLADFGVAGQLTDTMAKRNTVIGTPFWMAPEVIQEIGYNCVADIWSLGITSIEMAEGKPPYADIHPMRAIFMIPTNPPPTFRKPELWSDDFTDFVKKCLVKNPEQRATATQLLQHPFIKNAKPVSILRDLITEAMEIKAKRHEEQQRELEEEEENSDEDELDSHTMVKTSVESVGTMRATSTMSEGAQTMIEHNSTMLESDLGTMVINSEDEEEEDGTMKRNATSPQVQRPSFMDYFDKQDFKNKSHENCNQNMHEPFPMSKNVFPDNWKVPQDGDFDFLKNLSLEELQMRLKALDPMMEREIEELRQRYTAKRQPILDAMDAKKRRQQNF

CC1=C(C#N)C(c2ccc3[nH]nc(C)c3c2)C(C#N)=C(C)N1 [BAY-474]
inhibition [1]: 7%
inhibition [2]: -8%
inhibition [3]: -7%
inhibition [4]: 21%
inhibition [5]: 2%
inhibition [6]: 2%
inhibition [7]: -9%
inhibition [8]: 16%
inhibition [9]: 19%
inhibition [10]: -5%
inhibition [11]: -4%
inhibition [12]: -3.35%
inhibition [13]: 2%
inhibition [14]: 18%
inhibition [15]: -7%
inhibition [16]: -2%
inhibition [17]: 26%
inhibition [18]: 12%

CC1=C(C#N)[C@@H](c2ccc3[nH]nc(C)c3c2)C(C#N)=C(c2ccc(Cl)cc2)N1 [BAY-827]
residual activity [19]: 100%
residual activity [20]: 100%
residual activity [21]: 100%
residual activity [22]: 100%
residual activity [23]: 86.6%
residual activity [24]: 78.8%
residual activity [25]: 100%
residual activity [26]: 100%
residual activity [27]: 92%
residual activity [28]: 100%
residual activity [29]: 100%
residual activity [30]: 100%
residual activity [31]: 62.4%
residual activity [32]: 86.1%
residual activity [33]: 100%
residual activity [34]: 100%
residual activity [35]: 100%
residual activity [36]: 100%
residual activity [37]: 100%
residual activity [38]: 100%
residual activity [39]: 100%
inhibition (Rattus norvegicus): 69.5%
residual activity [40]: 100%
residual activity [41]: 100%
residual activity [42]: 99.5%
residual activity [43]: 100%
residual activity [44]: 91.1%
residual activity [45]: 100%
